Data from patent publication US11952388B2, “Crystal form of tri-cycle compound and application thereof” (FUJIAN AKEYLINK BIOTECHNOLOGY CO., LTD., priority 2018, dated 2024).

Assays:
[1] = Pharmacokinetics of oral administration and intravenous injection in Balb/c mice; format: in vivo; details: female, mouse, plasma
Protocol: (§1) 1. Study on the Pharmacokinetics of Oral Administration and Intravenous Injection of the Compound Represented by Formula (I) in Balb/c Mice The compound represented by formula (I) was mixed with 5% DMSO/55% polyethylene glycol 400/40% aqueous solution, vortexed and sonicated to obtain an approximately clear solution of 1 mg/mL, which was then filtered by a microporous membrane for later use. Female Balb/c mice aged 7 to 10 weeks were selected and the candidate compound solution was administered intravenously at a dose of 1 mg/kg. The compound represented by formula (I) was mixed with 10% solutol (polyethylene glycol-15 hydroxystearate) aqueous solution, vortexed and sonicated to obtain an approximately clear solution of 1 mg/mL, which was then filtered through a microporous membrane for later use. Female Balb/c mice aged 7 to 10 weeks were selected and the candidate compound solution was orally administered at a dose of 10 mg/kg. Whole blood was collected at a certain period of time to prepare plasma, drug concentration was analyzed by LC-MS/MS method, and pharmacokinetic parameters was calculated by Phoenix WinNonlin software (Pharsight, USA). Note: T1/2 means half-life; Vdss means apparent volume of distribution; Cl means clearance rate; AUC0_last means area below the drug-time curve; Tmax means peak time; Cmax means peak concentration; F % means oral bioavailability; iv means intravenous injection; PO means oral administration; mpk means mg/kg.

[2] = Pharmacokinetics of oral administration and intravenous injection in SD rats; format: in vivo; details: male, rat, plasma
Protocol: as §1, with “2.” for “1.”, “SD Rats” for “Balb/c Mice”, “Male SD rats” for “Female Balb/c mice”, “solutol” for “solutol (polyethylene glycol-15 hydroxystearate)”

[3] = system: proteins in CD-1 mouse plasma; test: Plasma protein binding rate (equilibrium dialysis); format: in vitro ADME, CD-1 mouse (mus musculus)
Protocol: Objectives of Experiment: to determine the binding rate of test compound to proteins in human and CD-1 mouse plasma
Experimental operation: 796 μL of blank plasma was taken from human and CD-1 mouse, and 4 μL of test compound working solution (400 μM) or warfarin working solution (400 μM) was added to make the final concentrations of both test compound and warfarin in the plasma sample 2 μM. The sample was mixed thoroughly. The final concentration of DMSO in the organic phase was 0.5%; 50 μt of plasma samples of test compound and warfarin was pipetted into the sample receiving plate (in triplicate), and immediately the corresponding volume of blank plasma or buffer was added to make the final volume of each sample 100 μL and the volume ratio of plasma:dialysis buffer 1:1. Then 400 μL of stop solution is added to these samples. These samples would be used as TO samples for determination of recovery and stability. […] All samples were analyzed by LC/MS/MS after protein precipitation, and the protein binding rate and recovery rate was calculated with the formula: % Unbound (unbound rate)=100*FC/TC, % Bound (bound rate)=100-% Unbound, % Recovery (recovery rate)=100*(FC+TC)/T0.

[4] = 1 mg/kg, iv 1 mpk, read-out: AUC0-last
[5] = 1 mg/kg, iv 1 mpk, read-out: Vdss
[6] = 10 mg/kg, po 10 mpk, read-out: AUC0-24h

Compound: Cc1cc2n(c1)S(=O)(=O)c1ccc(C(=O)NCC[C@H]3COCCO3)cc1NC2=O [compound represented by formula (I)]
- clearance ([1]; 1 mg/kg, iv 1 mpk): 8.5 mL/min/kg
- half-life ([1]; 1 mg/kg, iv 1 mpk): 72 min
- AUC(0-t) [1, 4]: 4.67 µM·h
- Vd [1, 5]: 0.45 L/kg
- Cmax ([1]; 10 mg/kg, po 10 mpk): 19.9 µM
- Tmax ([1]; 10 mg/kg, po 10 mpk): 30 min
- bioavailability ([1]; 10 mg/kg, po 10 mpk): 70%
- AUC(0-t) [1, 6]: 32.5 µM·h
- clearance ([2]; 1 mg/kg, iv 1 mpk): 8.5 mL/min/kg
- half-life ([2]; 1 mg/kg, iv 1 mpk): 57 min
- AUC(0-t) [2, 4]: 4.82 µM·h
- Vd [2, 5]: 0.56 L/kg
- Cmax ([2]; 10 mg/kg, po 10 mpk): 8.57 µM
- Tmax ([2]; 10 mg/kg, po 10 mpk): 30 min
- bioavailability ([2]; 10 mg/kg, po 10 mpk): 65%
- AUC(0-t) [2, 6]: 31.1 µM·h
- binding rate to plasma proteins (conclusion in words) [3]: lower binding rate
- Binding rate of plasma protein ([3]; 2 μM): 94%
